From ChEMBL document CHEMBL4477252, “Optimization of microtubule affinity regulating kinase (MARK) inhibitors with improved physical properties” (Bioorg Med Chem Lett, 2016)
pIC50: −log10 of the molar value.

Experiments:
[1] = target: T1, Dual specificity mitogen-activated protein kinase kinase 6 (Homo sapiens, UniProt P52564); assay: Inhibition of full-length recombinant human His-tagged MAP2K6 expressed in baculovirus expression system by Z'-LYTE assay
T1 sequence (P52564 whole entry): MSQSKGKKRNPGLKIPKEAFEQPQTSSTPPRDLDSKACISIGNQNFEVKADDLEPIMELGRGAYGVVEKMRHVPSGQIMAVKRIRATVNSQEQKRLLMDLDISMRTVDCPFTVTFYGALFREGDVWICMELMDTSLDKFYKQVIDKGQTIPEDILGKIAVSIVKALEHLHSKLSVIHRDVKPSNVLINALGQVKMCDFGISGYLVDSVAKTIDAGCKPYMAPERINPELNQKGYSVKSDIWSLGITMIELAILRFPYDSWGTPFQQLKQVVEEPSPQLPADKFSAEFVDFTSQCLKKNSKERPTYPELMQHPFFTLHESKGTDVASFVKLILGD

[2] = target: Macrophage colony-stimulating factor 1 receptor (Homo sapiens, UniProt P07333); assay: Inhibition of recombinant human His-tagged cytoplasmic CSF1R expressed in baculovirus expression system by Z'-LYTE assay
[3] = target: Serine/threonine-protein kinase B-raf (Homo sapiens, UniProt P15056); assay: Inhibition of full-length recombinant human GST-tagged BRAF expressed in baculovirus expression system by Z'-LYTE assay
[4] = target: T2, Inhibitor of nuclear factor kappa-B kinase subunit beta (Homo sapiens, UniProt O14920); assay: Inhibition of full-length recombinant human GST-tagged IKK-beta expressed in baculovirus expression system by Z'-LYTE assay
T2 sequence (O14920 whole entry): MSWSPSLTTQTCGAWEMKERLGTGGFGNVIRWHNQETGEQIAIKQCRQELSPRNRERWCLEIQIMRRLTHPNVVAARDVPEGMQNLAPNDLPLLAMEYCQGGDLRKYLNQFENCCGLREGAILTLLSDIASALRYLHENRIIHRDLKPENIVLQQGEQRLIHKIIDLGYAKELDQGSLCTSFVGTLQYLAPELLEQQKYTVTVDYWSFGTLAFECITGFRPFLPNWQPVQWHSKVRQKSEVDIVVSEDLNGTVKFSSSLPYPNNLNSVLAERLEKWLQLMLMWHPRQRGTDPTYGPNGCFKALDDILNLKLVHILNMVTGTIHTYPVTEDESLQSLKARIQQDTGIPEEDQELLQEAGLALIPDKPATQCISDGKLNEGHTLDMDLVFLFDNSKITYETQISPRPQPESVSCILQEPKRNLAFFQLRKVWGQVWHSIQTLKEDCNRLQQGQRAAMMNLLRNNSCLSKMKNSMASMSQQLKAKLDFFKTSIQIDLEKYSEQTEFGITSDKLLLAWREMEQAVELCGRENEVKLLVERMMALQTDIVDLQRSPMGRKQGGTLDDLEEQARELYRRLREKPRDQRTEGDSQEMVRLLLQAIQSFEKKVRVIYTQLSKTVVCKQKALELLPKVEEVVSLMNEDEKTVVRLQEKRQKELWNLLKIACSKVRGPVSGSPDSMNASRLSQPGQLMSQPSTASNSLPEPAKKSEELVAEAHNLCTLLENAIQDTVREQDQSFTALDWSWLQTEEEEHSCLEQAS

[5] = target: cAMP-dependent protein kinase catalytic subunit alpha (Homo sapiens, UniProt P17612); assay: Inhibition of recombinant human His-tagged PRKACA catalytic domain expressed in Escherichia coli by Z'-LYTE assay
[6] = target: T3, NUAK family SNF1-like kinase 1 (Homo sapiens, UniProt O60285); assay: Inhibition of full-length recombinant human His-tagged NUAK1 expressed in baculovirus expression system by Adapta assay
T3 sequence (O60285 whole entry): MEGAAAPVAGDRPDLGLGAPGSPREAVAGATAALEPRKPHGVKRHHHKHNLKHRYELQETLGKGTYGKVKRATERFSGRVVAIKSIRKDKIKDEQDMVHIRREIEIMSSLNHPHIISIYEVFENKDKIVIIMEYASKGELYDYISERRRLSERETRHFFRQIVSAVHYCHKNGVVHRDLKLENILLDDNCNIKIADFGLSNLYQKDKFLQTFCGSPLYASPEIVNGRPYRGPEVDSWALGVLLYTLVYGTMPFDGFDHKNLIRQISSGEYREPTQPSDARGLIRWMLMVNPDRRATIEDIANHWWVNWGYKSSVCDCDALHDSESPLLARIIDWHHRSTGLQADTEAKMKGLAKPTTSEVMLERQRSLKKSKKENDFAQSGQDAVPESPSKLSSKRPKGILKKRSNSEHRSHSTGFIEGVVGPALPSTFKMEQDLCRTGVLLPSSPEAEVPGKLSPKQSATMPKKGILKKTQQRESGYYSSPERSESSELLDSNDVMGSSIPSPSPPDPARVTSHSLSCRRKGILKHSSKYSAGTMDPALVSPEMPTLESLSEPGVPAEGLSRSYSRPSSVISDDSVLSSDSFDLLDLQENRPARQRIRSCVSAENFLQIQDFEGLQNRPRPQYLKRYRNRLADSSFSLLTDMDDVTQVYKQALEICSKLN

[7] = target: Interleukin-1 receptor-associated kinase 1 (Homo sapiens, UniProt P51617); assay: Inhibition of recombinant human GST-tagged IRAK1 (194 to 712 residues) catalytic domain expressed in baculovirus expression system by Adapta assay
[8] = target: T4, Tyrosine-protein kinase ITK/TSK (Homo sapiens, UniProt Q08881); assay: Inhibition of full-length recombinant human GST-tagged ITK expressed in baculovirus expression system by Z'-LYTE assay
T4 sequence (Q08881 whole entry): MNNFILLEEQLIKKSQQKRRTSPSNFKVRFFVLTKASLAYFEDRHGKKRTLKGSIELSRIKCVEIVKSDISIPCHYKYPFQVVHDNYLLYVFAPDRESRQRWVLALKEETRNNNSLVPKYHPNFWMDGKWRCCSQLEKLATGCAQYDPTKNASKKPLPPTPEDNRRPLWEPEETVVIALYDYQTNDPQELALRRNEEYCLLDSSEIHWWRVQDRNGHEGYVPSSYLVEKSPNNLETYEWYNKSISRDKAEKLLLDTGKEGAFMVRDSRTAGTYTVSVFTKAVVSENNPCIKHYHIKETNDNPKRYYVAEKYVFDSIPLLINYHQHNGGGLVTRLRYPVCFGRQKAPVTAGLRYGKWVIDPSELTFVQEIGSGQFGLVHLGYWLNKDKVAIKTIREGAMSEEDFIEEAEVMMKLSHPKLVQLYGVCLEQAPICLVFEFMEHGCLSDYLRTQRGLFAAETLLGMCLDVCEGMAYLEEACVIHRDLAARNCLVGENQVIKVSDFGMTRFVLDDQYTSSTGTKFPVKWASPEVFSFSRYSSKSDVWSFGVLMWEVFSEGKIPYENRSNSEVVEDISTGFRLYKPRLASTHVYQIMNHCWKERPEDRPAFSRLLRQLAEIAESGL

Interleukin-1 receptor-associated kinase 1, sequence (P51617 whole entry, the tested form may be a part): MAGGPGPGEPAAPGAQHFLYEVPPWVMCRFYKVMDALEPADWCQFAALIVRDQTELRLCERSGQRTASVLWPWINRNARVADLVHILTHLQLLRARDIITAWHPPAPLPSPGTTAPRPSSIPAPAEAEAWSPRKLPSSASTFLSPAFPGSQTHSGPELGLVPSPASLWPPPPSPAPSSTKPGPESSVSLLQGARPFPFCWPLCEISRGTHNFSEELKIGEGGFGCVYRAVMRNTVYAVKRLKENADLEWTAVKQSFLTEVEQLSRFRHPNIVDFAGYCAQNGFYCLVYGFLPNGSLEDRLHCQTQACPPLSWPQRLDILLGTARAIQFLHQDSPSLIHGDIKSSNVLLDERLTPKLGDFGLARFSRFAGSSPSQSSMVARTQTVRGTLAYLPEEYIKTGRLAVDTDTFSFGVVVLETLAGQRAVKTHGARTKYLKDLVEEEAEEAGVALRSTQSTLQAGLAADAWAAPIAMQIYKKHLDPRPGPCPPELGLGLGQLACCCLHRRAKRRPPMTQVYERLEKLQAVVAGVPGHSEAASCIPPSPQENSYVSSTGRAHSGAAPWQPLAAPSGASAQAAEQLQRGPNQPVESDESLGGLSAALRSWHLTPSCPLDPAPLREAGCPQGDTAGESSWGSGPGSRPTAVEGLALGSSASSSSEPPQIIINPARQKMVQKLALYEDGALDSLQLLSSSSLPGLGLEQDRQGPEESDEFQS
Serine/threonine-protein kinase B-raf, sequence (P15056 whole entry): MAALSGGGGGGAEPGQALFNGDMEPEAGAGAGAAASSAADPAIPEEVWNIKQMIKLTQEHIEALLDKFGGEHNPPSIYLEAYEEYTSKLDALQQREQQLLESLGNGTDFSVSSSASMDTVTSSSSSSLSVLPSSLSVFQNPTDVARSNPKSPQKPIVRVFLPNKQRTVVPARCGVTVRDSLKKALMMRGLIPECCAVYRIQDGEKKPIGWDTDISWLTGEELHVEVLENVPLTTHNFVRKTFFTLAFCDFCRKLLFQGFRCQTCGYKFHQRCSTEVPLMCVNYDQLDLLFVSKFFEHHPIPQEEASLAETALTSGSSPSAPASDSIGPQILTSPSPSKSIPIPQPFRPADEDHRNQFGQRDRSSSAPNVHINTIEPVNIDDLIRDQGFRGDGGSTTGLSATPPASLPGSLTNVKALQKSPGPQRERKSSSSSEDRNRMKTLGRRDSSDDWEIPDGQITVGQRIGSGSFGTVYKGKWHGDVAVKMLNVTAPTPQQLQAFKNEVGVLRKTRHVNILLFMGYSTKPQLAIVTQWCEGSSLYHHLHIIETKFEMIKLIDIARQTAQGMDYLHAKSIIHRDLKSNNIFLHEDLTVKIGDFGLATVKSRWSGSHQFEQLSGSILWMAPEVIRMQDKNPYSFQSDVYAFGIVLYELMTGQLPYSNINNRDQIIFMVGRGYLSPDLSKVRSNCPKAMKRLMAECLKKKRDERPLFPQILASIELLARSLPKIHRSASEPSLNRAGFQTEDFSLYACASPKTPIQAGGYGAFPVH
Macrophage colony-stimulating factor 1 receptor, sequence (P07333 whole entry): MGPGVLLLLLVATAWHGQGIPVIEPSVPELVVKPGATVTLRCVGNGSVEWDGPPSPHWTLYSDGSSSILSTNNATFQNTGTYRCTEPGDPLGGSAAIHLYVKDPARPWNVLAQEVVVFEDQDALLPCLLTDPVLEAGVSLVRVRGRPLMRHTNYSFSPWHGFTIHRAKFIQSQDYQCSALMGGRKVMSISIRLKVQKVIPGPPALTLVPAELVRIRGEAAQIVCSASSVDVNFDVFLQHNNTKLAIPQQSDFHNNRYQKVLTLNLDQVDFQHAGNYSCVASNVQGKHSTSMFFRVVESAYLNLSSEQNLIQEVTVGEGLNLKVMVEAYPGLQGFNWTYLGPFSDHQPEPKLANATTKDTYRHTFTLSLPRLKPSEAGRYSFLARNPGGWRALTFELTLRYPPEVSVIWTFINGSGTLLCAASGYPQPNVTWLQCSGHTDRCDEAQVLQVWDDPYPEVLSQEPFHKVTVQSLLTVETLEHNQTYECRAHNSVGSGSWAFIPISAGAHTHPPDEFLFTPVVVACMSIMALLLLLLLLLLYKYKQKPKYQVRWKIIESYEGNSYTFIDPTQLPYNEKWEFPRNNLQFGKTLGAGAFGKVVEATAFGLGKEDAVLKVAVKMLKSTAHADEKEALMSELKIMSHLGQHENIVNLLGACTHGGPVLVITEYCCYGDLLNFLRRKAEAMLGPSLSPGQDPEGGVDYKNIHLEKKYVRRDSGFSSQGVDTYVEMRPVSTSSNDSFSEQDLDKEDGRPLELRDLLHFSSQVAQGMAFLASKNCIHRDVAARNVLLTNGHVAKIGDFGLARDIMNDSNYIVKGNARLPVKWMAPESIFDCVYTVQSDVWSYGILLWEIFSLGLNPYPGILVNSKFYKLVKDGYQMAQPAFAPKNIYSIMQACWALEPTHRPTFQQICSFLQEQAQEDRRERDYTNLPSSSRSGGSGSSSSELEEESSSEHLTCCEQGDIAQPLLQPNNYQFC

## Cn1cc(-c2cnc3c(-c4csc(C(=O)NCC(F)(F)F)c4)cnn3c2)cn1
[1]
  pIC50: 4.46
[2]
  pIC50: 7.00
[3]
  pIC50: 5.82
[4]
  pIC50: < 4.00
[5]
  pIC50: < 4.00
[6]
  pIC50: 7.72
[7]
  pIC50: 7.72
[8]
  pIC50: 7.03

## Cc1sc(C(=O)N[C@@H]2[C@H](N)CCCC2(F)F)cc1-c1cnn2cc(Cl)cnc12
[1]
  pIC50: 5.48
[2]
  pIC50: 4.66
[3]
  pIC50: 5.96
[4]
  pIC50: 4.51
[5]
  pIC50: 5.52
[6]
  pIC50: 6.70
[7]
  pIC50: 5.72
[8]
  pIC50: 5.38

## O=C(NCC(F)(F)F)c1cc(-c2cnn3cc(-c4ccc(OCCN5CCCCC5)cc4)cnc23)cs1
[1]
  pIC50: 4.72
[2]
  pIC50: 7.39
[3]
  pIC50: 6.26
[4]
  pIC50: 4.26
[5]
  pIC50: 4.82
[6]
  pIC50: 7.82
[7]
  pIC50: > 8.00
[8]
  pIC50: 7.59

## Cn1cc(-c2cnc3c(-c4csc(C(=O)N[C@@H]5CCCC[C@@H]5N)c4)cnn3c2)cn1 (racemic)
[1]
  pIC50: 6.54
[2]
  pIC50: 8.48
[3]
  pIC50: 7.72
[4]
  pIC50: < 5.00
[5]
  pIC50: 7.57
[6]
  pIC50: 8.38
[7]
  pIC50: 8.05
[8]
  pIC50: 7.59
